Results as given in the supplement of paper PMC10307832.

Experiments:
Assay in all cases: relative viability (nuclei count vs DMSO), 5 days (fraction); higher = more cells survive
[1] = compound: CC1=C(C(=NN1)C)CC2=C(C3=C(S2)N(C(=O)N(C3=O)C)CC(C)C)C(=O)N4C[C@@H](CO4)O + C[C@@H](Oc1cc(-c2cnn(C3CCNCC3)c2)cnc1N)c1c(Cl)ccc(F)c1Cl [Crizotinib] (partner 1 µM)
In short: (§1)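 After 5 days of treatment, lung cancer cells in 1536-well plates were fixed and stained in a single step (final 0.05% Triton X-100, 1% formaldehyde, 1 ug/ml Hoechst) and their nuclei counted on 4× images. Treatment had been applied by pin tool the day after seeding as one drug alone or as a fixed anchor-drug dose with five library-drug doses (not always all listed) in √10 steps. Relative viability is the nuclei count of treated wells divided by that of vehicle wells, and values are medians of duplicate plates.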

[2] = compound: CC1=C(C(=NN1)C)CC2=C(C3=C(S2)N(C(=O)N(C3=O)C)CC(C)C)C(=O)N4C[C@@H](CO4)O + CC(=O)c1c(C)c2cnc(Nc3ccc(N4CCNCC4)cn3)nc2n(C2CCCC2)c1=O [Palbociclib] (partner 0.5 µM)
In short: as §1

IDH-C35 + Bortezomib = compound: Cc1ccccc1C(C(=O)NC1CCCCC1)N(C(=O)Cn1ccnc1C)c1cccc(F)c1 [IDH-C35] + CC(C)C[C@H](NC(=O)[C@H](Cc1ccccc1)NC(=O)c1cnccn1)B(O)O [Bortezomib] (partner 0.002 µM)
In short: as §1

IDH-C35 + Vorinostat = compound: Cc1ccccc1C(C(=O)NC1CCCCC1)N(C(=O)Cn1ccnc1C)c1cccc(F)c1 [IDH-C35] + O=C(CCCCCCC(=O)Nc1ccccc1)NO [Vorinostat] (partner 1 µM)
In short: as §1

Row | Cell Line | relative viability ([1]; first compound 0.0025 µM) | relative viability ([1]; first compound 0.007906 µM) | relative viability ([1]; first compound 0.025 µM) | relative viability ([1]; first compound 0.07906 µM) | relative viability ([1]; first compound 0.25 µM) | relative viability ([2]; first compound 0.0025 µM) | relative viability ([2]; first compound 0.007906 µM) | relative viability ([2]; first compound 0.025 µM) | relative viability ([2]; first compound 0.07906 µM) | relative viability ([2]; first compound 0.25 µM) | relative viability (IDH-C35 + Bortezomib; first compound 0.08 µM) | relative viability (IDH-C35 + Bortezomib; first compound 0.253 µM) | relative viability (IDH-C35 + Bortezomib; first compound 0.8 µM) | relative viability (IDH-C35 + Bortezomib; first compound 2.53 µM) | relative viability (IDH-C35 + Bortezomib; first compound 8 µM) | relative viability (IDH-C35 + Vorinostat; first compound 0.08 µM) | relative viability (IDH-C35 + Vorinostat; first compound 0.253 µM) | relative viability (IDH-C35 + Vorinostat; first compound 0.8 µM) | relative viability (IDH-C35 + Vorinostat; first compound 2.53 µM) | relative viability (IDH-C35 + Vorinostat; first compound 8 µM)
1 | 201T | 1.06 | 0.978 | 1.03 | 1.06 | 1.05 | 0.358 | 0.355 | 0.369 | 0.327 | 0.367 | 1.09 | 1.1 | 1.08 | 1.09 | 1.09 | 1 | 0.942 | 0.946 | 0.641 | 0.951
2 | A549 | 0.763 | 0.805 | 0.663 | 0.858 | 1.07 |  |  |  |  |  |  |  |  |  |  |  |  |  |  | 
3 | A-427 | 0.904 | 0.953 | 0.879 | 0.917 | 1.13 | 0.524 | 0.514 | 0.515 | 0.548 | 0.578 | 0.977 | 1.04 | 1.01 | 0.934 | 0.952 | 0.868 | 0.796 | 0.848 | 0.901 | 0.856
4 | ABC-1 | 1.24 | 0.905 | 1.01 | 0.956 | 0.992 | 0.72 | 0.445 |  | 0.638 | 0.729 | 0.391 | 0.306 | 0.299 | 0.339 | 0.362 | 1.12 | 1.07 | 0.941 | 1.23 | 1.3
5 | BEN | 0.912 | 0.719 | 0.75 | 0.604 | 0.847 | 0.448 | 0.484 | 0.471 | 0.423 | 0.502 | 0.897 | 0.921 | 0.799 | 0.881 | 0.936 | 0.576 | 0.608 | 0.618 | 0.568 | 0.593
6 | CAL-12T | 0.76 | 0.724 | 0.558 | 0.667 | 0.817 | 0.481 | 0.413 | 0.484 | 0.574 | 0.418 | 0.975 | 0.863 | 1.03 | 1.05 | 0.85 | 0.69 | 0.947 | 0.815 | 0.882 | 0.791
7 | COR-L23 | 0.679 | 0.56 | 0.445 | 0.403 | 0.386 | 0.291 | 0.266 | 0.238 | 0.245 | 0.318 | 0.927 | 0.995 | 1.01 | 0.983 | 0.909 | 0.503 | 0.421 | 0.404 | 0.408 | 0.409
8 | COR-L 105 | 0.969 | 0.738 | 0.668 | 0.748 | 0.771 | 0.433 | 0.423 | 0.395 | 0.403 | 0.383 | 0.902 | 0.943 | 0.752 | 0.66 | 0.489 | 0.932 | 0.959 | 0.722 | 0.803 | 0.688
9 | Calu-6 | 0.741 | 0.691 | 0.808 | 0.746 | 1 |  |  |  |  |  | 0.971 | 1 | 1.04 | 1.07 | 0.955 |  |  |  |  | 
10 | ChaGo-K-1 | 1.13 | 0.876 |  | 1.09 | 1.25 | 0.956 | 0.937 | 0.943 | 0.878 | 0.931 | 0.956 | 0.942 | 1.09 | 0.939 | 1.03 | 0.758 | 0.814 | 0.8 | 0.586 | 0.68
11 | EBC-1 | 0.219 | 0.182 | 0.191 | 0.214 | 0.184 |  |  |  |  |  | 0.544 | 0.575 | 0.493 | 0.613 | 0.506 |  |  |  |  | 
12 | EKVX | 1.09 | 1.11 | 0.988 | 0.962 | 0.992 | 0.475 | 0.44 | 0.417 | 0.368 | 0.39 | 1.18 | 0.995 | 0.995 | 1.04 | 0.993 | 0.876 | 0.678 | 0.769 | 0.738 | 0.698
13 | EMC-BAC-2 | 0.806 | 0.866 | 0.753 | 0.788 | 0.866 | 0.549 | 0.543 | 0.499 | 0.569 | 0.549 | 1.01 | 1.08 | 1.13 | 1.09 | 1.11 | 0.474 | 0.464 | 0.47 | 0.528 | 0.542
14 | EPLC-272H | 0.821 | 0.863 | 0.904 | 0.773 | 1.1 | 0.322 | 0.315 | 0.319 | 0.324 | 0.331 | 0.906 | 0.962 | 1.05 |  | 0.856 | 0.314 | 0.406 | 0.515 | 0.494 | 0.403
15 | H3255 | 0.924 | 0.902 | 0.817 | 0.816 | 0.926 | 0.32 | 0.326 | 0.269 | 0.296 | 0.315 | 0.682 | 0.856 | 0.816 | 0.863 | 1.05 | 0.8 | 0.925 | 0.875 | 0.73 | 0.868
16 | HARA | 1.09 | 1.19 | 0.915 | 0.987 | 1.04 | 0.308 | 0.199 | 0.28 | 0.247 | 0.264 | 1.18 | 1.04 | 1.13 | 1.15 | 1.05 | 0.624 | 0.436 | 0.517 |  | 0.525
17 | HCC-15 | 0.826 | 0.71 | 0.781 | 0.757 | 0.947 | 0.788 | 0.77 | 0.726 | 0.727 | 0.788 | 1.03 | 0.958 | 1.01 | 0.936 | 0.982 | 0.796 | 0.857 | 0.877 |  | 0.707
18 | HCC-44 | 0.765 | 0.843 | 0.88 | 0.811 | 0.929 | 0.989 | 0.992 | 0.961 | 0.894 | 1.05 | 0.899 | 0.934 | 0.88 | 0.86 | 0.843 | 1.11 | 1.09 | 1.12 | 1.13 | 1.11
